We go through two compounds from patent publication US8557862B2, “Synergistic antimicrobial composition” (Dow Global Technologies LLC, priority 2009, dated 2013).

The test relates to oil field isolated anaerobic SRB consortium. As to the kind of experiment: Biocidal efficacy (MBC for complete bacteria kill) against sulfate reducing bacteria. It counts as cell-based, Sulfate Reducing Bacteria (SRB). The conditions noted are these: minimum tested biocide concentration for complete bacteria kill, alone or in the blend, 40° C., 24 hour, anaerobic salt solution, 10^6 to 10^7 CFU/mL. The protocol: Inside an anaerobic chamber (BACTRON III), a deaerated sterile salt solution (3.1183 g of NaCl, […] of NaHCO3, 47.70 mg of KCl, 72.00 mg of CaCl2, 54.49 mg of MgSO4, 172.28 mg of Na2SO4, 43.92 mg of Na2CO3 in 1 L water) was contaminated with an oil field isolated anaerobic SRB consortium at final bacterial concentrations of 10^6 to 10^7 CFU/mL. The aliquots of this contaminated water were then treated with glutaraldehyde and DXN, or the glutaraldehyde/DXN combination at different active concentration levels. After the mixtures were incubated at 40° C. for 24 hour, the biocidal efficacy was determined by minimum tested biocide concentration for complete bacteria kill in the aliquots (MBC). Table 1 summarizes the efficacy of each biocide and their blends, and the Synergy Index* of each combination.

In the case of `O=CCCCC=O` [1:0, glutaraldehyde], the “MBC (active ppm) glut” value (glutaraldehyde concentration) is recorded as 2.63 active ppm.

In the case of `CC(=O)OC1CC(C)OC(C)O1` (centres unmarked) [0:1, 2,6-dimethyl-1,3-dioxan-4-yl acetate], the “MBC (active ppm) DXN” value (DXN concentration) was determined as 333.33 active ppm.
